Results on 106 molecules are retold here after ChEMBL document CHEMBL1143634, “Calculating virtual log P in the alkane/water system (log P(N)(alk)) and its derived parameters deltalog P(N)(oct-alk) and log D(pH)(alk)” (J Med Chem, 2005).

This data set can be described thus: Lipophilicity determined as logarithm of the partition coefficient in the alkane/water system. The settings on record: octanol/water.
As to `COc1ccc([C@@H]2Sc3ccccc3N(CCN(C)C)C(=O)[C@@H]2OC(C)=O)cc1` [DILTIAZEM], the “Log PNalk” value came to 1.37. Consider `CCCC(C)=O`, for which the “Log PNalk” value was found to be 0.43. For the molecule `CCCCCCCO` [1-HEPTANOL], the “Log PNalk” value is on record as 1.01. The result for `Nc1ccccc1[N+](=O)[O-]` [2-NITROANILINE] reads 0.31; that for `Cc1ccc(C)c(O)c1`, 0.38; that for `Clc1ccccc1` [CHLOROBENZENE], 2.99. With `Cc1cccc(O)c1` [METACRESOL], the “Log PNalk” value is -0.35.

Take `CCCCNc1ccc(C(=O)OCCN(C)C)cc1` [TETRACAINE]: the “Log PNalk” value is 1.75. The result for `N#Cc1ccc(O)cc1` [4-CYANOPHENOL] reads -2.29. The result for `O=[N+]([O-])c1ccccc1` [NITROBENZENE] reads 1.55. For `CCCCN` [BUTYLAMINE] the value was -0.62. Take `OCCOCCN1CCN(C(c2ccccc2)c2ccc(Cl)cc2)CC1` (stereo unspecified) [HYDROXYZINE]: the “Log PNalk” value is listed as 1.25. For `CC(C(=O)O)c1ccc(-c2ccccc2)c(F)c1` (stereo unspecified) [FLURBIPROFEN] the value was 1.49; for `c1ccc2ncccc2c1` [QUINOLINE], 1.26; for `CC(C)Cc1ccc(C(C)C(=O)O)cc1` (stereo unspecified) [IBUPROFEN], 2.08. For `[O-][n+]1cccc2ccccc21` the value was -2.05; for `Brc1ccccc1` [BROMOBENZENE], 3.12; for `O=C(O)Cc1ccccc1` [PHENYLACETIC ACID], -1.6. For `Cc1ccc(C(C)C)c(O)c1` [THYMOL] the value was 1.4; for `CCCCC` [PENTANE], 4.18; for `CC(C1=C(CCN(C)C)Cc2ccccc21)c1ccccn1` (stereo unspecified), 1.65.

Take `Oc1ccccc1` [PHENOL]: the “Log PNalk” value is reported as -0.82. The result for `c1ccc2[nH]ccc2c1` [INDOLE] reads 0.68.

In the case of `Nc1ccccc1` [ANILINE], the “Log PNalk” value is 0.03.

As for `Cn1c(=O)c2[nH]cnc2n(C)c1=O.O` [THEOPHYLLINE], the “Log PNalk” value is reported as -1.7. The result for `CN[C@@H](C)Cc1ccccc1` [METHAMPHETAMINE] reads 1.24; that for `CC(C)CO` [ISOBUTANOL], -0.98; that for `CSc1ccccc1`, 2.81. For `CN(C)CCC(c1ccc(Cl)cc1)c1ccccn1` (stereo unspecified) [CHLORPHENIRAMINE] the value was 2.09; for `COCCc1ccc(OCC(O)CNC(C)C)cc1` (stereo unspecified) [METOPROLOL], -0.38; for `C[C@]12CC[C@H]3[C@@H](CCC4=CC(=O)CC[C@@]43C)[C@@H]1CC[C@@H]2C(=O)CO` [DESOXYCORTICOSTERONE], 0.48. For `c1ccc(-c2ccccc2)cc1` [BIPHENYL] the value was 4; for `Nc1cccc([N+](=O)[O-])c1` [3-NITROANILINE], -0.46; for `CNC(=O)Oc1ccc2c(c1)[C@]1(C)CCN(C)[C@@H]1N2C` [PHYSOSTIGMINE], -0.46.

On to `CCN` [ETHYLAMINE], for which the “Log PNalk” value was -1.77. For `CC1CCc2cc(F)cc3c(=O)c(C(=O)O)cn1c23` (stereo unspecified) [FLUMEQUINE] the value was -1.37. The result for `CC(=O)Nc1ccccc1` [ACETANILIDE] reads -1.7; that for `Nc1ccc(Cl)cc1` [4-CHLOROANILINE], 0.57; that for `CN(C)CCCN1c2ccccc2Sc2ccc(Cl)cc21` [CHLORPROMAZINE], 4.37. For `N#Cc1ccccc1O` the value was -1.85; for `Oc1cc(Cl)cc(Cl)c1`, 0.35; for `Oc1c(Cl)cccc1Cl` [2,6-DICHLOROPHENOL], 1.31. On to `CCC(C)=O` [BUTANONE], for which the “Log PNalk” value was -0.25.

Take `CC(C)=O` [ACETONE]: the “Log PNalk” value is -0.91. The result for `O=C(O)CCl` [CHLOROACETIC ACID] reads -3.14; that for `CC(C)c1ccccc1O`, 0.96. The result for `O=[N+]([O-])c1ccccc1O` [NITROPHENOLATE] reads 1.04. Regarding `COc1ccc(CN(CCN(C)C)c2ccccn2)cc1` [PYRILAMINE], the “Log PNalk” value amounted to 2. The result for `COC(=O)c1ccccc1` [METHYL BENZOATE] reads 2.13; that for `CN[C@@H](C)[C@H](O)c1ccccc1` [EPHEDRINE], -0.77; that for `CC(=O)[C@H]1CC[C@H]2[C@@H]3CCC4=CC(=O)CC[C@]4(C)[C@H]3CC[C@]12C` [PROGESTERONE], 1.23. The result for `O=C(O)c1cccc([N+](=O)[O-])c1` reads -1.22; that for `C[C@]12CC[C@@H]3c4ccc(O)cc4CC[C@H]3[C@@H]1CC[C@@H]2O` [ESTRADIOL], -0.2; that for `Cc1ccc(Cc2cnc(NCCCCc3ncc(Br)cc3C)[nH]c2=O)cn1` [TEMELASTINE], 1.28. The result for `Nc1cccc(Cl)c1` [3-CHLOROANILINE] reads 0.71; that for `[O-][n+]1ccc2ccccc2c1`, -2.51; that for `Oc1ccc2ccccc2c1` [BETANAPHTHOL], 0.3.

On to `Cc1ccc(O)c(C)c1`, for which the “Log PNalk” value turned out to be 0.34. The result for `COc1ccc(Cc2nccc3cc(OC)c(OC)cc23)cc1OC` [PAPAVERINE] reads 0.75; that for `CCN(CC)CCOC(=O)c1ccc(N)cc1` [PROCAINE], -0.67; that for `Cc1ccc(O)cc1` [p-CRESOL], -0.19. In the case of `Fc1ccccc1` [FLUOROBENZENE], the “Log PNalk” value worked out at 2.46. Regarding `CCCCCO` [1-PENTANOL], the “Log PNalk” value is recorded as -0.4. For `[O-][n+]1ccc(-c2ccccc2)cc1` the value was -2.36; for `CO` [METHYL ALCOHOL], -2.8. For `C[C@]12CC[C@@H]3c4ccc(O)cc4CC[C@H]3[C@@H]1CCC2=O` [ESTRONE] the value was 0.48. The result for `C[C@]12CCC(=O)C=C1CC[C@@H]1[C@@H]2CC[C@@]2(C)[C@H]1CC[C@]2(O)C(=O)CO` [CORTODOXONE] reads -1; that for `CCCCCC(=O)O` [HEXANOATE], 0.24. For the molecule `CC(C)(C)c1ccc(C(O)CCCN2CCC(C(O)(c3ccccc3)c3ccccc3)CC2)cc1` (stereo unspecified) [TERFENADINE], the “Log PNalk” value is on record as 2.63.

Regarding `CC(C(=O)O)c1cccc(C(=O)c2ccccc2)c1` (stereo unspecified) [KETOPROFEN], the “Log PNalk” value came out at 0. As for `CSC`, the “Log PNalk” value was 0.98. The result for `COc1cccc([C@@]2(O)CCCC[C@@H]2CN(C)C)c1` [TRAMADOL] reads 1.82; that for `c1ccc2cnccc2c1` [ISOQUINOLINE], 1.11. The result for `COc1ccc(CCN2CCC(Nc3nc4ccccc4n3Cc3ccc(F)cc3)CC2)cc1` [ASTEMIZOLE] reads 0.95. The result for `CC(=O)c1ccccc1` [ACETOPHENONE] reads 1.14; that for `C[C@]12CCC(=O)C=C1CC[C@@H]1[C@@H]2[C@@H](O)C[C@]2(C=O)[C@@H](C(=O)CO)CC[C@@H]12` [ALDOSTERONE], -2.7.

`O=[N+]([O-])c1ccc(O)cc1` [P-NITROPHENOL]: the “Log PNalk” value is reported as -2.15. For `COc1ccc2c(c1)c(CC(=O)O)c(C)n2C(=O)c1ccc(Cl)cc1` [INDOMETHACIN] the value was 0.98.

With `C[C@]12C[C@H](O)[C@H]3[C@@H](CCC4=CC(=O)CC[C@@]43C)[C@@H]1CC[C@@H]2C(=O)CO` [CORTICOSTERONE], the “Log PNalk” value is -1.62.

In the case of `C=CCC1(C(C)CCC)C(=O)NC(=O)NC1=O` (stereo unspecified) [SECOBARBITAL], the “Log PNalk” value was -0.99. For `CC(Cl)(Cl)Cl` [TRICHLOROETHANE] the value was 2.71. For `CCCC(C)C1(CC)C(=O)NC(=O)NC1=O` (stereo unspecified) [PENTOBARBITAL] the value was -1.22; for `COc1ccccc1O` [GUAIACOL], 0.36; for `CN1CCC[C@H]1c1cccnc1` [NICOTINE], 0.03. For `CCC1(c2ccccc2)C(=O)NC(=O)NC1=O` [PHENOBARBITAL] the value was -2.75; for `CCC1(CC)C(=O)NC(=O)NC1=O` [BARBITAL], -2.15; for `CC(=O)CC(c1ccccc1)c1c(O)c2ccccc2oc1=O` (stereo unspecified) [WARFARIN], 0.05. Take `Nc1ccc(/N=N/c2ccccc2)c(N)n1` [PHENAZOPYRIDINE]: the “Log PNalk” value is 0.42. For `Oc1cccc(F)c1` the value was -0.83; for `Oc1ccc(C(F)(F)F)cc1`, -0.15. The result for `NCc1ccccc1` [BENZYLAMINE] reads -0.21; that for `COc1ccc(O)cc1` [MEQUINOL], -1.03.

Regarding `CCCC(C)C1(CC)C(=O)NC(=S)NC1=O` (stereo unspecified) [THIOPENTAL], the “Log PNalk” value is reported as 0.52. For `Cc1cc(C)cc(O)c1` the value was 0.32; for `Cc1ccccc1O` [ORTHOCRESOL], 0.25. The result for `CNc1ccccc1` reads 1.11; that for `O=C([O-])Cc1ccccc1Nc1c(Cl)cccc1Cl.[Na+]` [DICLOFENAC SODIUM], 1.72; that for `COc1ccccc1` [ANISOLE], 2.15. For `Cc1ccccc1N` [O-TOLYLAMINE] the value was 0.47; for `O=Cc1ccccc1` [BENZALDEHYDE], 1.12.

With `O=C(O)c1ccc(O)cc1` [PARABEN], the “Log PNalk” value is recorded as -1.82. With `OCc1ccccc1` [BENZYL ALCOHOL], the “Log PNalk” value was -0.62.

On to `Cc1ncc2c(c1O)COC2c1ccc(Cl)cc1` (stereo unspecified) [CICLETANINE], for which the “Log PNalk” value was -1.76. Take `CC(=O)[C@H]1CC[C@H]2[C@@H]3CC=C4C[C@@H](O)CC[C@]4(C)[C@H]3CC[C@]12C` [PREGNENOLONE]: the “Log PNalk” value turned out to be 0.62. For `CC(N)Cc1ccccc1` (stereo unspecified) [AMPHETAMINE] the value was 0.73. The result for `CN1C(=O)NC(=O)C(C)(C2=CCCCC2)C1=O` (stereo unspecified) [HEXOBARBITAL] reads -0.57.
